The text below walks through data of patent publication US7056654B2, “Screening assay for inhibitors of human cytochrome P-450” (SmithKline Beecham Corporation, priority 1999, dated 2006).

pIC50: −log10 of the molar value.

In the data set the target is T1, CYP2C8 (Homo sapiens, UniProt P10632).
T1 sequence (P10632 1-490): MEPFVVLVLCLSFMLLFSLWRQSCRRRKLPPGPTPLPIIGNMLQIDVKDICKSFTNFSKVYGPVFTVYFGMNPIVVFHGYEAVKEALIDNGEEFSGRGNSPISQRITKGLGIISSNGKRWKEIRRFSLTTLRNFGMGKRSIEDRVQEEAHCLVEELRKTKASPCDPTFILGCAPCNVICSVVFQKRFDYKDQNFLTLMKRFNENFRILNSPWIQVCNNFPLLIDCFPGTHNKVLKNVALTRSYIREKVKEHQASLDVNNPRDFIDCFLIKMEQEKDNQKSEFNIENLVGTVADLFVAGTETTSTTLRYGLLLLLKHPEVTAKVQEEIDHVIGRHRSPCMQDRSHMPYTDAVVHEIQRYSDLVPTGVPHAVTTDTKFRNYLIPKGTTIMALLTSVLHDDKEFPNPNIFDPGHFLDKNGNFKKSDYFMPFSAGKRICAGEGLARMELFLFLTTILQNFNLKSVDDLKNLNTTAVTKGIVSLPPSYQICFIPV
The note with it: pH 7.4.

Protocol: Assay Methodology for CYP2C8
• 400 μM diethoxyfluorescein, (i.e. 0.155 mg/mL in acetonitrile)—store at approx. −20° C. in the dark • 2% (w/v) NaHCO3—store at approx. 4° C. • 50 mM potassium phosphate buffer, pH 7.4
Freshly prepared cofactor solution:—approx. the following per mL of 2% (w/v) NaHCO3 • 1.7 mg NADP, monosodium salt • 7.8 mg glucose-6-phosphate, monosodium salt • 6 Units glucose-6-phosphate dehydrogenase, Type VII from Bakers Yeast Method: • 1) Pre-warm the plate reader oven to 37° C. and pre-warm the lamp for at least 10 minutes. • 2) Mix 2.5 μL of 400 µM diethoxyfluorescein, 5 μL (50 μg) CYP2C8 microsomal protein and 212.5 μL buffer per incubate (giving 4 µM diethoxyfluorescein and 200 μg/mL protein final concentration). • 3) To each well of a 96-well plate add 220 µL of incubation mix and 5 μL of test compound solution (or 5 μL of appropriate solvent for control wells—methanol, DMSO or acetonitrile may be used). • 4) Pre-incubate the multi-well plate in the plate reader at 37° C. for 5 minutes. Pre-warm the cofactor solution at 37° C. for 5 minutes. • 5) Add 25 μL cofactor solution to each well and scan with an excitation wavelength of 485 nm and an emission wavelength of 530 nm with a gain of 80. Scan for 10 cycles at 1 minute intervals.

For the compound `O=c1c(O)c(-c2ccc(O)c(O)c2)oc2cc(O)cc(O)c12` [quercitin], the pIC50 (in general, −log10 of the IC50, conventionally taken in molar units) is 5.52.
